# In PMC8689140 (Frontiers in Pharmacology, 2021):
# Assays:
# VMAT2 [1] = tested on: VMAT2; set-up: method as in Yang et al., 2021; conditions: previous study ref Yang et al., 2021; read-out: affinity for VMAT2 IC50; cited from earlier work
# [2] = set-up: method as in Yang et al., 2021; conditions: SD rats, oral administration at an equimolar dose, previous study ref Yang et al., 2021; cited from earlier work
# rhCYP CYP2D6 = tested on: T1, rhCYP CYP2D6; experiment: P450 phenotyping, rhCYP isozymes, CYP2D6; format: in vitro ADME, human; conditions: rhCYP2D6 probe substrate, 1 µM
# T1 construct: purchased Corning Co., Ltd (Shanghai, China)
# From the text: (§1) According to the result of metabolite identification, three metabolites were selected as the targets for metabolic phenotyping. Seven CYP isozymes (CYP1A2, CYP2B6, CYP2C8, CYP2C9, CYP2C19, CYP2D6, and CYP3A4) were investigated using two kinds of methods: chemical inhibitors in human liver microsomes (HLMs) method (Experiment 1) and rhCYP isozymes method (Experiment 2).
# Experiment 2: Each rhCYP isozyme was thawed and diluted as above method. As positive controls, the probe substrates of each P450 isozyme were tested under the same conditions. […] Vx ([…]) is the production rate of metabolites for each rhCYP isozyme.
# CYP2D6 = tested on: T2, CYP2D6; experiment: P450 phenotyping, chemical inhibitors in HLMs, CYP2D6; format: in vitro ADME, human; conditions: CYP2D6 probe substrate, 5 µM, specific inhibitor
# T2 construct: tissue Corning Co., Ltd (Shanghai, China); host or cells: human liver microsomes
# Procedure: as §1
# Experiment 1: HLMs were thawed on ice and diluted in100 mM sodium phosphate buffer (pH 7.4) containing 3 mM magnesium chloride. […] After 10 min of preincubation at 37°C, the reactions were initiated by adding 20 µL of NADPH (10 mM) and then incubated at 37 °C in a shaking water bath for 30 min. The samples were prepared in triplicates. The reactions were terminated by adding 600 µL of ice-cold acetonitrile and stored at −20°C until analysis. Control samples without NADPH and 0-time point samples were included. As positive controls, the probe substrates of each P450 isozyme under the same conditions were tested, and specific inhibitors was added. Next, the samples were centrifuged at 13,000 rpm for 10 min, the supernatants were determined by LC–MS/MS.
# [3] = set-up: method as in Skor et al., 2017; Stahl, 2018; conditions: Figure 1A ref Skor et al., 2017, Stahl, 2018, cited from earlier work; for Plasma Leval (DTBZ): share of HTBZ isomers after deutetrabenazine; for Plasma Leval (TBZ): share of HTBZ isomers after tetrabenazine
# VMAT2 [4] = tested on: VMAT2; set-up: method as in Skor et al., 2017; Stahl, 2018; conditions: Figure 1A ref Skor et al., 2017; Stahl, 2018; cited from earlier work
# [5] = Metabolite identification in rat liver microsomes; format: in vitro ADME; conditions: NADPH, 60 min
# Procedure: (§2) Human, rat and dog liver microsomes were carefully thawed on ice prior to the experiment and diluted to 1 mg/ml in100 mM sodium phosphate buffer (pH 7.4) containing 10 mM magnesium chloride. […] After 3 min of preincubation at 37°C, the reactions were initiated by adding 20 µL of NADPH (20 mM) and then incubated at 37°C in a shaking water bath for 60 min. All samples were prepared in duplicates. The reactions were terminated by adding 600 µl of ice-cold acetonitrile and stored at −20°C until analysis. Control samples without NADPH and 0-time point samples were included. As a positive control, testosterone (10 µM) which was metabolized to produce the hydroxylation metabolite was used as a substrate to confirm the activity of the incubation system. Next, the samples were centrifuged at 13,000 rpm for 10 min, the supernatant was separated and evaporated to dryness under a nitrogen stream. The residue was resuspended in 100 μl of acetonitrile, after centrifugation, the supernatants were analyzed by UPLC–UV-HRMS.
# (§3) The analysis was performed on Acquity UPLC system coupled with a diode array detector (Waters Corporation, United States) and Q Exactive™ Orbitrap HRMS (Thermo Electron Corporation, United States). […]
# (§4) HRMS were operated at positive ion mode using a heating electrospray ionization source (HESI). […] The metabolites were detected by full MS/dd-MS^2 analysis from m/z 100 to m/z 1,000. […]
# [6] = Metabolite identification in human liver microsomes; format: in vitro ADME
# Procedure: as §2, §3, §4
# [7] = Metabolite identification in liver microsomes from humans, dogs and rats (stated across species); format: in vitro ADME, human, dog, rat; conditions: range or bound across the three species
# Procedure: as §2, §3, §4
# [8] = Metabolite identification in dog liver microsomes; format: in vitro ADME
# Procedure: as §2, §3, §4
# [9] = Metabolite identification in dog plasma after oral dose; format: in vivo; conditions: pooled dog plasma after single oral dose of (+)-13e at 3 μmol/kg
# Procedure: (§5) Male beagle dogs were randomly divided into four groups. […] The dogs were fasted for 12 h before treatment and 4 h after treatment, but they were granted free access to water. Blood was collected from the vein before administration and 0.083 (only for injection groups), 0.25, 0.5, 1, 2, 3, 4, 6, 8, 12 and 24 h, and placed it in heparinized tubes, and centrifuged it at 8,000 rpm for 10 min at 4°C to separate the plasma, which we stored at −20 °C until analysis. The plasma samples were pretreated by protein precipitation with acetonitrile and quantitated by the validated LC-MS/MS (Shimadzu Exion-Triple Quad 4500) method.
# Then, four volumes of acetonitrile (containing 0.1% formic acid) were added into the pooled plasma samples to precipitate the proteins. After vortex-mixing and centrifugation, the supernatants were dried under a nitrogen stream. Then, the residues were resuspended in 100 μl of acetonitrile/water (1:1, v/v) with 0.1% formic acid. After centrifugation, the supernatants were analyzed by UPLC–UV-HRMS for metabolite identification.
# The analysis was performed on Acquity UPLC system coupled with a diode array detector (Waters Corporation, United States) and Q Exactive™ Orbitrap HRMS (Thermo Electron Corporation, United States). […] The mobile phase was composed water containing 0.1% formic acid (A) and acetonitrile containing 0.1% formic acid (B). The flow rate was 0.40 ml/min. The elution conditions were the following linear gradient for metabolite identify in HLMs: 0–1 min: 95% A, 1–2 min: 80% A, 2–5 min: 80% A, 5–8 min: 70% A, 8–12 min: 30% A, 12–15 min: 5% A, 15–16 min: 95% A, and 16–18 min: 95% A. The elution conditions were the following for metabolite identify in dog plasma: 0–1 min: 95% A, 1–30 min: 70% A, 30–32 min: 30% A, 32–33 min: 5% A, 33–35 min: 95% A, and 35–40 min: 95% A.
# HRMS were operated at positive ion mode using a heating electrospray ionization source (HESI). The optimized operating parameters were set as follows: sheath gas (nitrogen) flow rate of 35 psi, aux gas (nitrogen) flow rate of 10 psi, HESI and capillary temperature of 350°C, and spray voltage of 3.5 kV. The metabolites were detected by full MS/dd-MS^2 analysis from m/z 100 to m/z 1,000. The resolution of the first-class scan and second-class scan was 70 000 and 17 500, respectively. The collision energy for collision induced dissociation (NCE) was set to 20, 40 and 60 eV. The loop count was set to five and the dynamic exclusion duration to 10 s. […] Thermo Compound Discover software was used to identify expected and unknown metabolites, and we finally proposed (+)-13e metabolic pathways based on the deduced metabolites and relevant drug biotransformation knowledge.
# rat VMAT2 = target: T3, rat VMAT2 (Rattus norvegicus, UniProt Q01827); experiment: [3H]DA uptake assay in rat striatal synaptosomes; format: biochemical; conditions: [3H]DA uptake, rat striatal synaptosomes
# T3 construct: in vitro [^3H]DA uptake assay in rat striatal synaptosomes; from tissue; host or cells: rat striatal synaptosomes / vesicular suspension
# T3 sequence (Q01827 whole entry): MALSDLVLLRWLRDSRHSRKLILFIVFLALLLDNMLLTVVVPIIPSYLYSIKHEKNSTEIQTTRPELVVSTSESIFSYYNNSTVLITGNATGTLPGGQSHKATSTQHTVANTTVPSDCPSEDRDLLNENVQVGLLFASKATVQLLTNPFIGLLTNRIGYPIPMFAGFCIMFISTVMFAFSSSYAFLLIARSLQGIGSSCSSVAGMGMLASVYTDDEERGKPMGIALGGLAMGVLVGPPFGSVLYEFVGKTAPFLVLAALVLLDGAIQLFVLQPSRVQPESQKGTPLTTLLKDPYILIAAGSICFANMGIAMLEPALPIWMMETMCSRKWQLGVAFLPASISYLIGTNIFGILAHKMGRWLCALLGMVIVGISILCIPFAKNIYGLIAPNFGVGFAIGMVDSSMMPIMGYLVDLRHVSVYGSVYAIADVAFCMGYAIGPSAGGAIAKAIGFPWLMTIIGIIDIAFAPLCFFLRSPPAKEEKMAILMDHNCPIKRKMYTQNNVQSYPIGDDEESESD
# Procedure: [^3H]DA (dihydroxyphenylethyethylamine, 3,4-[ring-2,5,6-^3H]; specific activity, 28.0 Ci/mmol) was purchased from Perkin Elmer. […] After drying, the filter plate was sealed with unifilter-96 back sealing tape and added 50 μl of microscint-20 (Perkin Elmer), then sealed the top of the filter plate with TopSeal-A. The radioactivity was measured by a TopCount scintillation counter. GraphPad Prism 5.0 was used to analyze data.
# [10] = PK in dogs after single oral or intravenous dose; format: in vivo, dog; conditions: dog
# Procedure: as §5
# The system consisted of an Exion UHPLC system (Shimadzu, Japan) and a Triple Quad 4500 mass spectrometer (AB Sciex, United States) with an electrospray ionization source. Multiple reaction monitoring in the positive ionization mode was applied to measure analytes. Chromatographic separation was performed on a Acquity BEH C18 column (50 × 2.1 mm i. d., 1.7 μm, Waters, United States). The mobile phase was composed of 0.1% FA in water (A) and 0.1% FA in acetonitrile (B), and the flow rate was 0.4 ml/min. The elution conditions were the following linear gradient: 0–0.4 min: 90% A, 0.4–0.6 min: 60% A, 0.6–1.2 min: 10% A, 1.2–2.2 min: 10% A, 2.2–2.3 min: 90% A, 2.3–3.0 min: 90% A. The optimized parameters were as follows: the spray voltage 5.5 kV, source temperature 550 °C, pressure of source gas 1 and gas 2: 55psi, pressure of curtain gas: 30psi, and the DP, EP and CE voltage was 30,6 and 40 eV, respectively.
# [11] = tested on: locomotor activity of rats; experiment: Dose-dependent effects on locomotor activity in rats; format: in vivo, rat; conditions: SD rats, single oral gavage 5.2 μmol/kg, 0.5-[…] after dosing
# Procedure: Before administration, animals were transported to the test room and allowed to acclimate for at least 1 h. Immediately after drug administration, rats were placed into activity chambers to assess their basal locomotor activity using the TopScan monitoring system. The total travel distance was recorded from 0.5 to 1.5 h after administration in intervals of 10 min.
# [12] = no peak in UV, abundance by mass spectrometry
smiles,measurement,setting,value
"COc1cc2c(cc1OCC(F)(F)F)CCN1CC(CC(C)C)C(O)CC21 (racemic) [13e, 3-isobutyl-10-methoxy-9-(2,2,2-trifluoroethoxy)-1,3,4,6,7,11b-hexahydro-2H-pyrido [2,1-a]isoquinolin-2-ol]",IC50,VMAT2 [1],0.00513 µM
same,concentration in the brain higher than that of HTBZ,[2],2 fold
COc1ccc2c(c1)[C@]13CCCC[C@@H]1[C@H](C2)N(C)CC3 [Dextromethorphan],CL int in rhCYP,rhCYP CYP2D6,13.1 µL/min/pmol
same,%Inhibation in HLM,CYP2D6,90.7%
"COc1cc2c(cc1OC)[C@H]1C[C@@H](O)[C@H](CC(C)C)CN1CC2 [HTBZ, (+)-α-dihydrotetrabenazine]",Plasma Leval (DTBZ),[3],1.7%
same,Plasma Leval (TBZ),[3],1.8%
same,VMAT2 affinity,VMAT2 [4],High
CC(C)CC1CN2CCc3cc(OCC(F)(F)F)c(O)cc3C2CC1O (centres unmarked) [M373],"Relative abundance, UV area % Rat",[5],2.6%
same,Relative abundance Human (*detected by mass spectrometry),[6]; [12],0.69^* %
same,"relative abundance in liver microsomes from humans, dogs, and rats",[7],less than 3.2%
same,Relative abundance Dog (*detected by mass spectrometry),[8]; [12],0.46^* %
COc1cc2c(cc1OCC(F)(F)F)CCN1CC(CC(C)(C)O)C(O)CC21 (centres unmarked) [M403-2],"Relative abundance, UV area % Rat",[5],8.78%
same,Relative abundance UV area % in dog plasma,[9],9.69%
same,"Relative abundance, UV area % Human","[6]; NADPH, 60 min, UV area",12.11%
same,"Relative abundance, UV area % Dog","[8]; NADPH, 60 min, UV area",10.01%
CC(C)C[C@@H]1CN2CCc3cc(OCC(F)(F)F)c(OC4OC(C(=O)O)C(O)C(O)C4O)cc3[C@H]2C[C@H]1O (some centres unmarked) [M549],Relative abundance UV area % in dog plasma,[9],7.47%
COc1cc2c(cc1OCC(F)(F)F)CCN1CC(CC(C)C)C(OC3OC(C(=O)O)C(O)C(O)C3O)CC21 (centres unmarked) [M563],Relative abundance UV area % in dog plasma,[9],9.92%
CC(C)(O)C[C@@H]1CN2CCc3cc(OCC(F)(F)F)c(OC4OC(C(=O)O)C(O)C(O)C4O)cc3[C@H]2C[C@H]1O (some centres unmarked) [M565],Relative abundance UV area % in dog plasma,[9],10.2%
COc1cc2c(cc1OCC(F)(F)F)CCN1C[C@@H](CC(C)(C)OC3OC(C(=O)O)C(O)C(O)C3O)[C@H](O)C[C@H]21 (some centres unmarked) [M579-1],Relative abundance UV area % in dog plasma,[9],3.43%
"COc1cc2c(cc1OC)C1CC(=O)C(CC(C)C)CN1CC2 (centres unmarked) [TBZ, tetrabenazine, reference compound]",IC90,rat VMAT2,0.0969 µM
"COc1cc2c(cc1OC)[C@H]1C[C@@H](OC(=O)[C@@H](N)C(C)C)[C@H](CC(C)C)CN1CC2 [VBZ, Valbenazine ditosylate, reference compound]","V, V/F",[10]; single intravenous dose 0.6 μmol/kg,2.8 ± 0.5 L/kg
same,clearance,"[10]; single intravenous dose 0.6 μmol/kg, read-out: Cl, Cl/F (converted)",0.36 L/h/kg
same,"V, V/F",[10]; single oral dose 3 μmol/kg,3.5 ± 0.8 L/kg
same,bioavailability,"[10]; male, beagle, plasma, dogs, oral 3 μmol/kg vs intravenous 0.6 μmol/kg, read-out: absolute oral bioavailability",74.1%
same,CL/F,"[10]; male, beagle, plasma, 3 umol/kg, single oral dose 3 μmol/kg",0.48 L/h/kg
same,reduction rate (RR) of locomotion,[11],97.9%
COc1cc2c(cc1OC)[C@H]1C[C@H](O)[C@H](CC(C)C)CN1CC2 [[+]-β-HTBZ],Plasma Leval (DTBZ),[3],43.8%
same,Plasma Leval (TBZ),[3],37.2%
same,VMAT2 affinity,VMAT2 [4],High
COc1cc2c(cc1OC)[C@@H]1C[C@H](O)[C@@H](CC(C)C)CN1CC2 [[-]-α-HTBZ],Plasma Leval (DTBZ),[3],48.3%
same,Plasma Leval (TBZ),[3],55.6%
same,VMAT2 affinity,VMAT2 [4],Low
COc1cc2c(cc1OC)[C@@H]1C[C@@H](O)[C@@H](CC(C)C)CN1CC2 [[-]-β-HTBZ],Plasma Leval (DTBZ),[3],6.2%
same,Plasma Leval (TBZ),[3],5.4%
same,VMAT2 affinity,VMAT2 [4],Low
